According to patent US20110183969A1, “ANTIFUNGAL COMBINATION THERAPY” (priority 2008, published 2011):

Legend:
Type in all cases: cell-based
Aspergillus terreus AT49 = experiment: MIC (YAG medium); conditions: Aspergillus terreus; YAG medium; MIC banded into grades; AT49; read-out: MIC A. terreus 49 (grade)
Method in brief: (§1)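 Growth inhibition was determined by optical density at 485 nm after a 24-hour incubation at 35° C in glucose/ammonium chloride/yeast extract (YAG) medium. MICs, expressed in mg/L, were taken as the lowest drug level reducing growth by more than 70% relative to untreated wells.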

Aspergillus terreus AT4 = experiment: MIC (YAG medium); conditions: Aspergillus terreus; YAG medium; MIC banded into grades; AT4; read-out: MIC A. terreus (grade)
Method in brief: as §1

[1] = tested on: Aspergillus fumigatus AF293; experiment: MIC (YAG medium); conditions: Aspergillus fumigatus; YAG medium; MIC banded into grades; AF293; read-out: MIC A. fumigatus (grade)
Method in brief: as §1

[2] = tested on: Aspergillus fumigatus AF210; experiment: MIC (YAG medium); conditions: Aspergillus fumigatus; YAG medium; MIC banded into grades; AF210; read-out: MIC A. fumigatus 210 (grade)
Method in brief: as §1

Aspergillus niger = experiment: MIC (YAG medium); conditions: Aspergillus niger; YAG medium; MIC banded into grades; read-out: MIC A. niger (grade)
Method in brief: as §1

Aspergillus flavus = experiment: MIC (YAG medium); conditions: Aspergillus flavus; YAG medium; MIC banded into grades; read-out: MIC A. flavus (grade)
Method in brief: as §1

[3] = tested on: Aspergillus fumigatus AF210; experiment: Checkerboard titration (FIC) of an indolizine derivative with a second antifungal agent, RPMI medium; conditions: compound of Example 21 in combination with caspofungin, 48 hrs
Method: To determine the combined antifungal effect of indolizine derivatives of formula (I) and the second antifungal agent a checkerboard titration can be carried out. These are relatively simple tests to determine the combined effects of two compound. In the checkerboard titration doubling dilutions of compound A (e.g. an indolizine derivative of formula (I)) are prepared in every row across a microtitre plate and doubling dilutions of compound B (e.g. a second antifungal agent as described above) are prepared in every column down a microtitre plate. The activity of the two compounds in combination can be compared with the activity of each compound alone. In these experiments a narrow range of dilutions was tested for each compound around the MIC.
A stock solution of the compound of Example […] was prepared in DMSO. A stock solution of a second antifungal agent, in this case caspofungin, was 2 mg/ml.
The stock solution of the compound of Example 21 was diluted 1:2000 in water to 2.5 μg/ml. From this stock, aqueous solutions containing the following concentrations of the compound of Example 21 were prepared 0.9, 0.8, 0.7, 0.6, 0.5, 0.4, 0.3, 0.2, 0.1, 0.05, 0.025, 0.0125 μg/ml. […]
To determine the combined effect of the compounds the Fractional inhibitory concentration FIC was determined, where FIC is defined as: […]

Fusarium solani FS2 = experiment: 24 hr Fusarium solani MIC (RPMI medium, FS2); conditions: banded into grades, read-out: MIC
Method: Between 1 and 5 mgs of compound were accurately weighed out into a sterile Eppendorf tube. The compound was dissolved in DMSO to give a solution containing 5 mg/mL. Tubes were stored at −20° C. until required.
On the day of testing thawed solutions were vortex mixed to ensure homogeneity. 30 μL of solution was removed and added to 570 μL of sterile water in a separate sterile Eppendorf The thoroughly mixed solution was used to prepare a series of doubling dilutions in water, in a deep well plate. […] replicate plates were prepared using a Minitrak by aspirating 20 μL from each well into eleven clear polystyrene 96 well plates.
Spores of Aspergillus spp. (Aspergillus fumigatus [two strains], Aspergillus terreus [two strains], Aspergillus niger and Aspergillus flavus) were harvested from cultures grown on Sabarauds agar for 5 days, and resuspended in PBS/Tween 80 to approx 1×10^7 cfu/mL. Other filamentous fungi (Absidia corymbifera, Fusarium solani, Rhizomucor, Scedosporium spp., Trichophyton spp.), were grown on Sabarauds agar for 2-10 days and spores/hyphae resuspended in PBS/Tween to give approx 1×10^7 cfu/mL. Candida species (Candida albicans, Candida glabrata, Candida krusei, Candida parapsilosis and Candida tropicalis) were grown on Sabarauds agar, cells were harvested from the agar using a sterile loop and resuspended in PBS/Tween 80 to approx 1×10^6 cfu/mL. Each organism suspension was diluted in RPMI medium, containing 2% glucose and 0.135 M MOPS buffer (pH 7.0) to 0.5−2×10^4 cfu/mL for Aspergillus spp. and other filamentous fungi and 0.5-2×10^3 cfu/mL for yeast. 80 μL of an organism suspension was added to each well of the plate containing drug dilutions.
This produced MIC plates with a drug range 50-0.05 mg/L and organism inocula of 1-2×10^4 cfu/mL for Aspergillus spp. and other filamentous fungi and 1-2×10^3 cfu/mL for yeasts. All plates were incubated for 24-48 hrs at 35° C. Growth was assessed by monitoring the optical density at 485 nm for each well. The MIC of a compound is the lowest drug concentration that inhibits growth of an organism by >80% compared with a drug free control. MICs are recorded as mg/L. Other growth media can be used for susceptibility testing, and the activity of the described compounds can also be assessed in a medium comprising 1% glucose, 1% ammonium chloride and 0.5% yeast extract (YAG medium). To perform MIC tests in this medium, dilutions of compounds are prepared in microtitre plates as described above. Fungal strains to be tested are grown and harvested in an identical manner to that described above, each organism suspension is then diluted in YAG medium to 0.5-2×10^4 cfu/mL for Aspergillus spp. and other filamentous fungi and 0.5-2×10^3 cfu/mL for yeast. 80 μL of an organism suspension was added to each well of the plate containing drug dilutions. This produced MIC plates with a drug range 50-0.05 mg/L and organism inocula of 1-2×10^4 cfu/mL for Aspergillus spp. and other filamentous fungi and 1-2×10^3 cfu/mL for yeasts. All plates were incubated for 24 hrs at 35° C. Growth was assessed by monitoring the optical density at 485 nm for each well. The MIC of a compound is the lowest drug concentration that inhibits growth of an organism by >70% compared with a drug free control. MICs are recorded as mg/L. In cases where the MIC of an organism is […] mg/L the MIC is repeated using a concentration range of 0.5-0.0005 mg/L. MIC tests in YAG medium have more clear-cut endpoints and have slightly lower MICs than those performed in RPMI medium.
24 hr Fusarium solani MIC Results (RPMI Medium, FS2): […]

MIC (Aspergillus terreus AT49): < 1 µg/mL | MIC (Aspergillus terreus AT4): < 1 µg/mL | MIC [1]: < 1 µg/mL | MIC [2]: < 1 µg/mL | MIC (Aspergillus niger): < 1 µg/mL | MIC (Aspergillus flavus): < 1 µg/mL | MIC (Fusarium solani FS2): < 1 µg/mL
Structure (SMILES): Cc1cc(C)nc(N2CCN(c3ccc(NC(=O)C(=O)c4c(-c5ccccc5)cc5ccccn45)cc3)CC2)c1 [Example 21, N-{4-[4-(4,6-Dimethyl-pyridin-2-yl)-piperazin-1-yl]-phenyl}-2-oxo-2-(2-phenyl-indolizin-3-yl)-acetamide]
FIC (fractional inhibitory concentration) [3]: 0.66
